Assay results from ChEMBL document CHEMBL3044736, “Synthesis, characterization, solvatochromic properties, and antimicrobial evaluation of 5-acetyl-2-thioxo-dihydro-pyrimidine-4,6-dione-based chalcones” (2013).
Converted amounts (≈) assume the structure as drawn.

Legend:
Assay type in all cases: functional
[1] = tested on: Klebsiella pneumoniae; test: Antimicrobial activity against Klebsiella pneumoniae MTCC 109 by agar cup diffusion method
[2] = tested on: Escherichia coli; test: Antimicrobial activity against Escherichia coli MTCC 443 assessed as diameter of growth inhibition zone at 250 ug/ml after 18-24 hr by agar cup diffusion method; settings: read-out: DIZ
[3] = tested on: Pseudomonas aeruginosa; test: Antimicrobial activity against Pseudomonas aeruginosa MTCC 1688 assessed as diameter of growth inhibition zone at 50 ug/ml after 18-24 hr by agar cup diffusion method; settings: read-out: DIZ
[4] = tested on: Candida albicans; test: Antimicrobial activity against Candida albicans MTCC 227 by agar cup diffusion method
[5] = tested on: Staphylococcus aureus; test: Antimicrobial activity against Staphylococcus aureus MTCC 96 assessed as diameter of growth inhibition zone at 250 ug/ml after 18-24 hr by agar cup diffusion method; settings: read-out: DIZ
[6] = tested on: Trichophyton rubrum; test: Antimicrobial activity against Trichophyton rubrum MTCC 296 assessed as diameter of growth inhibition zone at 50 ug/ml after 48-96 hr by agar cup diffusion method; settings: read-out: DIZ
[7] = tested on: Escherichia coli; test: Antimicrobial activity against Escherichia coli MTCC 443 assessed as diameter of growth inhibition zone at 25 ug/ml after 18-24 hr by agar cup diffusion method; settings: read-out: DIZ
[8] = tested on: Klebsiella pneumoniae; test: Antimicrobial activity against Klebsiella pneumoniae MTCC 109 assessed as diameter of growth inhibition zone at 250 ug/ml after 18-24 hr by agar cup diffusion method; settings: read-out: DIZ
[9] = tested on: Trichophyton rubrum; test: Antimicrobial activity against Trichophyton rubrum MTCC 296 assessed as diameter of growth inhibition zone at 100 ug/ml after 48-96 hr by agar cup diffusion method; settings: read-out: DIZ
[10] = tested on: Penicillium; test: Antimicrobial activity against Penicillium wild strain assessed as diameter of growth inhibition zone at 50 ug/ml after 48-96 hr by agar cup diffusion method; settings: read-out: DIZ
[11] = tested on: Candida albicans; test: Antimicrobial activity against Candida albicans MTCC 227 assessed as diameter of growth inhibition zone at 100 ug/ml after 48-96 hr by agar cup diffusion method; settings: read-out: DIZ
[12] = tested on: Penicillium; test: Antimicrobial activity against Penicillium wild strain assessed as diameter of growth inhibition zone at 100 ug/ml after 48-96 hr by agar cup diffusion method; settings: read-out: DIZ
[13] = tested on: Streptococcus pyogenes; test: Antimicrobial activity against Streptococcus pyogenes MTCC 442 by agar cup diffusion method
[14] = tested on: Penicillium; test: Antimicrobial activity against Penicillium wild strain by agar cup diffusion method
[15] = tested on: Pseudomonas aeruginosa; test: Antimicrobial activity against Pseudomonas aeruginosa MTCC 1688 assessed as diameter of growth inhibition zone at 250 ug/ml after 18-24 hr by agar cup diffusion method; settings: read-out: DIZ
[16] = tested on: Klebsiella pneumoniae; test: Antimicrobial activity against Klebsiella pneumoniae MTCC 109 assessed as diameter of growth inhibition zone at 100 ug/ml after 18-24 hr by agar cup diffusion method; settings: read-out: DIZ
[17] = tested on: Staphylococcus aureus; test: Antimicrobial activity against Staphylococcus aureus MTCC 96 assessed as diameter of growth inhibition zone at 100 ug/ml after 18-24 hr by agar cup diffusion method; settings: read-out: DIZ
[18] = tested on: Aspergillus clavatus; test: Antimicrobial activity against Aspergillus clavatus MTCC 1323 by agar cup diffusion method
[19] = tested on: Streptococcus pyogenes; test: Antimicrobial activity against Streptococcus pyogenes MTCC 442 assessed as diameter of growth inhibition zone at 50 ug/ml after 18-24 hr by agar cup diffusion method; settings: read-out: DIZ
[20] = tested on: Streptococcus pyogenes; test: Antimicrobial activity against Streptococcus pyogenes MTCC 442 assessed as diameter of growth inhibition zone at 25 ug/ml after 18-24 hr by agar cup diffusion method; settings: read-out: DIZ
[21] = tested on: Klebsiella pneumoniae; test: Antimicrobial activity against Klebsiella pneumoniae MTCC 109 assessed as diameter of growth inhibition zone at 50 ug/ml after 18-24 hr by agar cup diffusion method; settings: read-out: DIZ
[22] = tested on: Escherichia coli; test: Antimicrobial activity against Escherichia coli MTCC 443 by agar cup diffusion method
[23] = tested on: Streptococcus pyogenes; test: Antimicrobial activity against Streptococcus pyogenes MTCC 442 assessed as diameter of growth inhibition zone at 250 ug/ml after 18-24 hr by agar cup diffusion method; settings: read-out: DIZ
[24] = tested on: Streptococcus pyogenes; test: Antimicrobial activity against Streptococcus pyogenes MTCC 442 assessed as diameter of growth inhibition zone at 100 ug/ml after 18-24 hr by agar cup diffusion method; settings: read-out: DIZ
[25] = tested on: Trichophyton rubrum; test: Antimicrobial activity against Trichophyton rubrum MTCC 296 assessed as diameter of growth inhibition zone at 250 ug/ml after 48-96 hr by agar cup diffusion method; settings: read-out: DIZ
[26] = tested on: Pseudomonas aeruginosa; test: Antimicrobial activity against Pseudomonas aeruginosa MTCC 1688 by agar cup diffusion method
[27] = tested on: Escherichia coli; test: Antimicrobial activity against Escherichia coli MTCC 443 assessed as diameter of growth inhibition zone at 50 ug/ml after 18-24 hr by agar cup diffusion method; settings: read-out: DIZ
[28] = tested on: Aspergillus clavatus; test: Antimicrobial activity against Aspergillus clavatus MTCC 1323 assessed as diameter of growth inhibition zone at 50 ug/ml after 48-96 hr by agar cup diffusion method; settings: read-out: DIZ
[29] = tested on: Escherichia coli; test: Antimicrobial activity against Escherichia coli MTCC 443 assessed as diameter of growth inhibition zone at 100 ug/ml after 18-24 hr by agar cup diffusion method; settings: read-out: DIZ
[30] = tested on: Pseudomonas aeruginosa; test: Antimicrobial activity against Pseudomonas aeruginosa MTCC 1688 assessed as diameter of growth inhibition zone at 25 ug/ml after 18-24 hr by agar cup diffusion method; settings: read-out: DIZ
[31] = tested on: Candida albicans; test: Antimicrobial activity against Candida albicans MTCC 227 assessed as diameter of growth inhibition zone at 50 ug/ml after 48-96 hr by agar cup diffusion method; settings: read-out: DIZ
[32] = tested on: Candida albicans; test: Antimicrobial activity against Candida albicans MTCC 227 assessed as diameter of growth inhibition zone at 25 ug/ml after 48-96 hr by agar cup diffusion method; settings: read-out: DIZ
[33] = tested on: Trichophyton rubrum; test: Antimicrobial activity against Trichophyton rubrum MTCC 296 assessed as diameter of growth inhibition zone at 25 ug/ml after 48-96 hr by agar cup diffusion method; settings: read-out: DIZ
[34] = tested on: Staphylococcus aureus; test: Antimicrobial activity against Staphylococcus aureus MTCC 96 by agar cup diffusion method
[35] = tested on: Penicillium; test: Antimicrobial activity against Penicillium wild strain assessed as diameter of growth inhibition zone at 250 ug/ml after 48-96 hr by agar cup diffusion method; settings: read-out: DIZ
[36] = tested on: Aspergillus clavatus; test: Antimicrobial activity against Aspergillus clavatus MTCC 1323 assessed as diameter of growth inhibition zone at 250 ug/ml after 48-96 hr by agar cup diffusion method; settings: read-out: DIZ
[37] = tested on: Staphylococcus aureus; test: Antimicrobial activity against Staphylococcus aureus MTCC 96 assessed as diameter of growth inhibition zone at 25 ug/ml after 18-24 hr by agar cup diffusion method; settings: read-out: DIZ
[38] = tested on: Staphylococcus aureus; test: Antimicrobial activity against Staphylococcus aureus MTCC 96 assessed as diameter of growth inhibition zone at 50 ug/ml after 18-24 hr by agar cup diffusion method; settings: read-out: DIZ
[39] = tested on: Aspergillus clavatus; test: Antimicrobial activity against Aspergillus clavatus MTCC 1323 assessed as diameter of growth inhibition zone at 100 ug/ml after 48-96 hr by agar cup diffusion method; settings: read-out: DIZ
[40] = tested on: Candida albicans; test: Antimicrobial activity against Candida albicans MTCC 227 assessed as diameter of growth inhibition zone at 250 ug/ml after 48-96 hr by agar cup diffusion method; settings: read-out: DIZ
[41] = tested on: Pseudomonas aeruginosa; test: Antimicrobial activity against Pseudomonas aeruginosa MTCC 1688 assessed as diameter of growth inhibition zone at 100 ug/ml after 18-24 hr by agar cup diffusion method; settings: read-out: DIZ
[42] = tested on: Penicillium; test: Antimicrobial activity against Penicillium wild strain assessed as diameter of growth inhibition zone at 25 ug/ml after 48-96 hr by agar cup diffusion method; settings: read-out: DIZ
[43] = tested on: Trichophyton rubrum; test: Antimicrobial activity against Trichophyton rubrum MTCC 296 by agar cup diffusion method
[44] = tested on: Klebsiella pneumoniae; test: Antimicrobial activity against Klebsiella pneumoniae MTCC 109 assessed as diameter of growth inhibition zone at 25 ug/ml after 18-24 hr by agar cup diffusion method; settings: read-out: DIZ
[45] = tested on: Aspergillus clavatus; test: Antimicrobial activity against Aspergillus clavatus MTCC 1323 assessed as diameter of growth inhibition zone at 25 ug/ml after 48-96 hr by agar cup diffusion method; settings: read-out: DIZ

COc1ccc(/C=C/C(=O)C2C(=O)NC(=S)NC2=O)cc1OC
MBC [1]: 500 µg/mL (≈ 1500 µM)
MIC [1]: 250 µg/mL (≈ 748 µM)
zone of inhibition at 250 µg/mL [2]: 21 mm
zone of inhibition at 50 µg/mL [3]: 15 mm
MFC [4]: 1000 µg/mL (≈ 2990 µM)
MIC [4]: 500 µg/mL (≈ 1500 µM)
zone of inhibition at 250 µg/mL [5]: 20 mm
zone of inhibition at 50 µg/mL [6]: 22 mm
zone of inhibition at 25 µg/mL [7]: 12 mm
zone of inhibition at 250 µg/mL [8]: 19 mm
zone of inhibition at 100 µg/mL [9]: 23 mm
zone of inhibition at 50 µg/mL [10]: 20 mm
zone of inhibition at 100 µg/mL [11]: 25 mm
zone of inhibition at 100 µg/mL [12]: 22 mm
MBC [13]: 100 µg/mL (≈ 299 µM)
MIC [13]: 62.5 µg/mL (≈ 187 µM)
MFC [14]: 1000 µg/mL (≈ 2990 µM)
MIC [14]: 1000 µg/mL (≈ 2990 µM)
zone of inhibition at 250 µg/mL [15]: 20 mm
zone of inhibition at 100 µg/mL [16]: 18 mm
zone of inhibition at 100 µg/mL [17]: 18 mm
MFC [18]: 1000 µg/mL (≈ 2990 µM)
MIC [18]: 1000 µg/mL (≈ 2990 µM)
zone of inhibition at 50 µg/mL [19]: 16 mm
zone of inhibition at 25 µg/mL [20]: 12 mm
zone of inhibition at 50 µg/mL [21]: 15 mm
MBC [22]: 500 µg/mL (≈ 1500 µM)
MIC [22]: 500 µg/mL (≈ 1500 µM)
zone of inhibition at 250 µg/mL [23]: 21 mm
zone of inhibition at 100 µg/mL [24]: 18 mm
zone of inhibition at 250 µg/mL [25]: 24 mm
MBC [26]: 200 µg/mL (≈ 598 µM)
MIC [26]: 200 µg/mL (≈ 598 µM)
zone of inhibition at 50 µg/mL [27]: 16 mm
zone of inhibition at 50 µg/mL [28]: 20 mm
zone of inhibition at 100 µg/mL [29]: 18 mm
zone of inhibition at 25 µg/mL [30]: 11 mm
zone of inhibition at 50 µg/mL [31]: 24 mm
zone of inhibition at 25 µg/mL [32]: 20 mm
zone of inhibition at 25 µg/mL [33]: 21 mm
MBC [34]: 500 µg/mL (≈ 1500 µM)
MIC [34]: 500 µg/mL (≈ 1500 µM)
zone of inhibition at 250 µg/mL [35]: 24 mm
zone of inhibition at 250 µg/mL [36]: 23 mm
zone of inhibition at 25 µg/mL [37]: 11 mm
zone of inhibition at 50 µg/mL [38]: 15 mm
zone of inhibition at 100 µg/mL [39]: 21 mm
zone of inhibition at 250 µg/mL [40]: 25 mm
zone of inhibition at 100 µg/mL [41]: 18 mm
zone of inhibition at 25 µg/mL [42]: 19 mm
MFC [43]: 500 µg/mL (≈ 1500 µM)
MIC [43]: 500 µg/mL (≈ 1500 µM)
zone of inhibition at 25 µg/mL [44]: 14 mm
zone of inhibition at 25 µg/mL [45]: 18 mm

O=C(O)c1cn(C2CC2)c2cc(N3CCNCC3)c(F)cc2c1=O [CIPROFLOXACIN]
MIC [1]: 25 µg/mL (≈ 75.4 µM)
MIC [13]: 50 µg/mL (≈ 151 µM)
MIC [22]: 25 µg/mL (≈ 75.4 µM)
MIC [34]: 100 µg/mL (≈ 302 µM)
